Measured values as given in paper PMC6145916, “Interaction of mitochondrial fission factor with dynamin related protein 1 governs physiological mitochondrial function in vivo” (Scientific Reports, 2018).
Where no end group is shown, it is not given here.

Experiments:
primary cortical neurons = assay: Mitochondrial membrane potential (TMRM), primary cortical neurons; type: cell-based, rat; conditions: overnight treatment; n = 3, with 3 replicates
Protocol: (§1) Bottom, quantification of the form factor (degree of branching) and aspect ratio (major/minor axis length). At least 10,000 mitochondrial fragments were analyzed for each condition. Mitochondrial reactive oxygen species production (MitoSox Red) (b) and membrane potential (TMRM) (c) after overnight treatment with indicated concentrations of peptide (n = 3, with 3 replicates). […] Overlay of live microscopy imaging at time 0 (green) and 150 (red) seconds. […] An estimation of the % mobile mitochondria from the Pearson coefficient of each set of images. Data are mean ± s.e.
(§2) Following treatment, cells were washed with treatment media.
The Cy5 filter was used to autofocus on the mitochondria plane. Nuclei were imaged with a DAPI filter and the mitoROS (MitoSox) or membrane potential (TMRM) image was acquired with a TRITC filter. […] MitoROS was calculated as the average MitoSox signal per cell. The mitochondrial membrane potential was calculated as the average TMRM signal in the mitochondrial mask.
Mitochondrial reactive oxygen species determination […]
and 1% penicillin-streptomycin solution (Corning, NY, USA). Primary cortical neurons were treated with increasing concentrations of peptides in NbActiv1 media. HD Patient- and adult- […]
and without phenol red. […] After incubation
HEPES, and without phenol red. […]
(§3) calculated as the average MitoSox signal per cell. […]

Mff-Drp1 interaction = assay: Co-immunoprecipitation of Drp1 and Mff from SH-SY5Y cell lysate; type: cell-based, human; conditions: 1 µM, 1 hour, relative to TAT-carrier control; n = 3, with 2 replicates
SH-SY5Y cells [1] = assay: Mitochondrial membrane potential (TMRM), SH-SY5Y; type: cell-based, human; conditions: overnight treatment, normalized to no peptide; 3 independent experiments
Protocol: (§4) Represented Western blot is cropped from a full blot shown in the Expanded Western Blots section of the Supplementary Information. […] Hoechst 33342 is shown in blue and Tom20 in green (n = 3, 10 images each). Below, quantification of the form factor (degree of branching) and major axis length (length of mitochondria). At least 6,000 mitochondrial fragments were measured for each condition. Mitochondrial reactive oxygen species (ROS) production (MitoSox Red) (c) and mitochondrial membrane potential (TMRM) (d) after overnight treatment with indicated concentrations of peptide or FCCP. Data are from 3 independent experiments per condition normalized to the average no peptide value. (e) Relative mitochondrial ROS (MitoSox Red) signal in GFP positive cells expressing full-length or alanine-substituted P259 at indicated amino acids after two days of transfection. Values are normalized to a GFP empty vector (n = 3, with 3 replicates). […] Data are mean ± s.e.
as §2
(§5) The Cy5 filter was used to autofocus on the mitochondria plane. […] MitoROS was calculated as the average MitoSox signal per cell. The mitochondrial membrane potential was calculated as the average TMRM signal in the mitochondrial mask. […]
as §3

SH-SY5Y cells [2] = assay: Mitochondrial ROS (MitoSox Red), SH-SY5Y; type: cell-based, human; conditions: overnight treatment, normalized to no peptide; 3 independent experiments
Protocol: as §4, §2, §5, §3

[3] = test system: E17 primary cortical neurons; assay: Mitochondrial morphology (Tom20), primary cortical neurons; type: cell-based, rat; conditions: 1 µM P259, two-hour treatment; n = 3, 10 images each
Protocol: as §1
Human neuroblastoma SH-SY5Y cells purchased from ATCC were cultured in a 50/50 mixture of […]
using SH-SY5Y cells were carried out in the same growth medium with the exception of using […]
Wild-type and MFF knockout mouse embryonic fibroblast (MEF) cells were generously provided by Professor David Chan. […]
an NCBI protein blast of the P259 sequence ([…]) was performed across the human genome database and the top 75 gene query hits were recorded.7 The orthologs of each available gene were obtained from the Ensembl database.8 Of the resulting 75 human gene hits, 37 had […]
The effect of peptides on GTPase activity of Drp1 was measured by incubating recombinant Drp1 […]
for 1 hour at 37 °C. GTPase activity was measured using a colorimetric GTPase assay kit (Novus Biologicals, CO, USA) as instructed by the manufacturer. […]

YGRKKRRQRRRGSGIIQLPEIVVV-NH2 (C-terminus assumed) [P259]
mitochondrial membrane potential (primary cortical neurons): decreased membrane potential
Mff-Drp1 interactions (co-IP) (Mff-Drp1 interaction): significant reduction in Mff-Drp1 interactions
mitochondrial membrane potential (SH-SY5Y cells [1]): mitochondrial depolarization
mitochondrial ROS levels (SH-SY5Y cells [2]): increase in mitochondrial reactive oxygen species (ROS) levels
mitochondrial morphology [3]: more elongated and branched mitochondria
